Data set [1] can be described thus: Ex vivo biodistribution in Sprague-Dawley rats.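 As to all read-outs here: four rats in each time-point group.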 As to conditions: for brain uptake: male SD rats (n=4).
Protocol: Group of rats (n=4) were used for each time point. […] The whole brain was quickly removed and dissected into segments consisting of brain stem, thalamus, striatum, hippocampus, cortex, and cerebellum. The remainder of the brain was also collected to determine total brain uptake. […] Tissues were weighed, and the % I.D./g for each tissue was calculated.
The nature of data set [2]: MicroPET study in the brain of a nonhuman primate. The conditions noted are these: monkey 5.8 kg, 8.68 mCi/6 mL injected. It counts as in vivo, cynomolgus monkey. An excerpt: The brain of a cynologmus monkey was scanned using a microPET scanner. The left panel is the MRI image. The middle panel is the co-registered the MRI and PET image. The right panel is the PET image. […] FIG. 74 presents a plot of the radiation in portions of the monkey brain as a function of time. […] It also has favorable clearance pharmacokinetics from the brain.

For another data set, the target named is α-synuclein fibrils (Homo sapiens, UniProt P37840). The data set is described as follows: ThT fluorescence saturation binding to α-synuclein fibrils. Further details: made in house; host or cells: BL21(DE3)RIL E. coli.
For another data set, the target named is T1, tau fibrils (Homo sapiens, UniProt P10636).
T1 construct: made in house; host or cells: BL21(DE3)RIL E. coli
T1 sequence (P10636 560-692): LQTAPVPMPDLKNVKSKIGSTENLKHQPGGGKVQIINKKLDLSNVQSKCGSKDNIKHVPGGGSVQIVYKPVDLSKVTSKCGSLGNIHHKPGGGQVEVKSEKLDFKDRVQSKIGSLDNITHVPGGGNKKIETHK
The experiment in a line: [125I]SIL23 competitive binding assay, tau fibrils. As to conditions: [125I]SIL23 competition, 95% confidence intervals in parentheses.

A further data set has as its target T2, Aβ1-42 fibrils (Homo sapiens, UniProt P05067).
T2 construct: Synthetic Aβ1-42 peptide (1 mg) (Bachem, Torrance, Calif.); purchased Bachem, Torrance, Calif; host or cells: synthetic peptide
The experiment in a line: [125I]SIL23 competitive binding assay, Aβ1-42 fibrils. The conditions noted are these: [125I]SIL23 competition, 95% confidence intervals in parentheses.

T2 sequence (P05067 672-713 limits assumed): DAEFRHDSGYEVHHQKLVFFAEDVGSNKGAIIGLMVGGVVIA
Protocol for α-synuclein fibrils: The maximum excitation wavelength (λex) was determined according to the fluorescent intensity-excitation wavelength curve. At (λex), the emission wavelength was scanned to get maximum emission wavelength (λem).

For the compound `COc1ccc2c(c1)Sc1cc([N+](=O)[O-])ccc1N2` [[^11C]SIL5], the Biodistribution in data set [1] (blood, 5 min, male Sprague-Dawley rats) stood at 0.506 ± 0.040 I.D. %/gram; in data set [1] (blood, 30 min, male Sprague-Dawley rats), 0.369 ± 0.031 I.D. %/gram; in data set [1] (blood, 60 min, male Sprague-Dawley rats), 0.300 ± 0.015 I.D. %/gram; in data set [1] (fat, 5 min, male Sprague-Dawley rats) it was 0.155 ± 0.023 I.D. %/gram; in data set [1] (fat, 30 min, male Sprague-Dawley rats), 0.241 ± 0.042 I.D. %/gram; in data set [1] (fat, 60 min, male Sprague-Dawley rats), 0.293 ± 0.076 I.D. %/gram. The Biodistribution in data set [1] (heart, 5 min, male Sprague-Dawley rats) is given as 0.758 ± 0.052 I.D. %/gram; in data set [1] (heart, 30 min, male Sprague-Dawley rats) it was 0.377 ± 0.046 I.D. %/gram; in data set [1] (heart, 60 min, male Sprague-Dawley rats), 0.245 ± 0.010 I.D. %/gram; in data set [1] (kidney, 30 min, male Sprague-Dawley rats), 0.807 ± 0.086 I.D. %/gram; in data set [1] (kidney, 60 min, male Sprague-Dawley rats), 0.559 ± 0.053 I.D. %/gram; in data set [1] (liver, 5 min, male Sprague-Dawley rats) it was 2.198±0.111 I.D. %/gram. In addition, the Biodistribution in data set [1] (liver, 30 min, male Sprague-Dawley rats) came to 1.349 ± 0.116 I.D. %/gram; in data set [1] (liver, 60 min, male Sprague-Dawley rats) it was 1.116±0.024 I.D. %/gram; in data set [1] (lung, 5 min, male Sprague-Dawley rats) it was 1.149 ± 0.058 I.D. %/gram; in data set [1] (lung, 30 min, male Sprague-Dawley rats) it was 0.740 ± 0.038 I.D. %/gram; in data set [1] (lung, 60 min, male Sprague-Dawley rats), 0.485 ± 0.036 I.D. %/gram; in data set [1] (muscle, 5 min, male Sprague-Dawley rats), 0.271 ± 0.005 I.D. %/gram. Moreover, the Biodistribution in data set [1] (muscle, 30 min, male Sprague-Dawley rats) turned out to be 0.325 ± 0.030 I.D. %/gram; in data set [1] (muscle, 60 min, male Sprague-Dawley rats), 0.199 ± 0.016 I.D. %/gram; in data set [1] (pancreas, 5 min, male Sprague-Dawley rats), 1.007 ± 0.262 I.D. %/gram; in data set [1] (pancreas, 30 min, male Sprague-Dawley rats), 0.506 ± 0.066 I.D. %/gram; in data set [1] (pancreas, 60 min, male Sprague-Dawley rats) it was 0.522 ± 0.036 I.D. %/gram; in data set [1] (spleen, 5 min, male Sprague-Dawley rats), 0.659 ± 0.049 I.D. %/gram. In addition, the Biodistribution is 0.400 ± 0.052 I.D. %/gram in data set [1] (spleen, 30 min, male Sprague-Dawley rats) and 0.386 ± 0.027 I.D. %/gram in data set [1] (spleen, 60 min, male Sprague-Dawley rats). For the same compound, the brain uptake was determined as 0.953±0.115 % I.D./g in data set [1] (5 min post i.v. injection), 0.287±0.046 % I.D./g in data set [1] (30 min post i.v. injection) and 0.158±0.014 % I.D./g in data set [1] (60 min post i.v. injection). In addition, the “decrease of liver uptake” value in data set [1] (liver, from 5 min to 60 min) is “about 50%”. Moreover, the “ability to cross the blood-brain-barrier (BBB)” value in data set [1] (male Sprague-Dawley rats, i.v.) is on record as “able to cross BBB”. Besides, the “brain uptake (microPET)” value in data set [2] was “high uptake in the brain”. In data set [2], the “washout kinetics from the brain (microPET)” value is listed as “good washout kinetics”.
For `Cc1ccc2c(c1)sc(-c1ccc(N(C)C)cc1)[n+]2C` [ThT, Thioflavin T], at α-synuclein fibrils, the Bmax turned out to be 5672 afu.
On to `O=[N+]([O-])c1ccc2c(c1)Sc1cc(Br)ccc1N2` [SIL22, 3-bromo-7-nitro-10H-phenothiazine], for which the values for the Ki on tau fibrils and at Aβ1-42 fibrils were 173 nM and 102 nM, respectively.
For `O=[N+]([O-])c1ccc2c(c1)Sc1ccccc1N2` [SIL3B, 3-nitro-10H-phenothiazine] the same measures were 52.3 nM and 71.5 nM.
In the case of `COc1ccc2c(c1)Sc1cc(N)ccc1N2C` [Compound 13a, 7-methoxy-10-methyl-10H-phenothiazin-3-amine], the melting point lay in the range of 141.6 to 142.9 °C.

The values above are taken from US20130315825A1, “TRICYCLIC HETEROAROMATIC COMPOUNDS AS ALPHA-SYNUCLEIN LIGANDS” (Washington University, priority 2012, published 2013).
